In publication PMC8502122, “A comprehensive method for determining cellular uptake of purine nucleoside phosphorylase and adenylosuccinate synthetase inhibitors by H. pylori” (Applied Microbiology and Biotechnology, 2021):
Read-outs that look alike come from different tables or passages of the source.

Columns and labels:
[1] = tested on: H. pylori ATCC 26695 strain; experiment: MIC by broth microdilution and FICI of 1:1 combinations, strain 26695; type: cell-based; conditions: Helicobacter pylori, ATCC26695, 72 h, combinations 1:1 w/w given as inhibitor a/inhibitor b
Procedure: (§1) Minimal inhibitory concentration of inhibitors was determined by an in vitro broth microdilution assay (Knezevic et al. [2018]). Briefly, double-strength Brain heart infusion broth (BHI) was supplemented with yeast extract (2.5%), horse serum (5%), and IsoVitaleX (1%). In each well, twofold serial dilutions of inhibitors (from 1000 µg/mL to 7.8 μg/mL in a final volume) and an equal volume of inoculated double-strength BHI were added (approx. 1 × 10^6 CFU/mL in final volume). Amoxicillin was used as a positive control, and distilled water as a negative control. The microtiter plates were incubated at 37 °C under microaerobic conditions in moist atmosphere for 3 days. […] During the incubation, in wells with viable H. pylori urease produced by the bacteria converted urea into ammonia and carbon dioxide, changing the pH and color of a phenol red indicator in the medium (from orange to purple). The plates were examined visually for color change and OD560 was measured after 4 h in order to determine presence/absence of growth. The MIC is defined as the lowest concentration of a compound that inhibits visible growth, compared with the growth in the controls (in this case defined as presence/absence of color change). All experiments were performed in duplicate and in 3–6 independent tests.
(§2) In order to determine possible additive or even synergistic effect of inhibitors, a method with calculation of the fractional inhibitory concentration index (FICI) was used (Pillai et al, [2005]). A combination of two inhibitors was applied (w/w 1:1) in the final concentration 1 mg/mL and subsequently diluted. The FICI index was calculated as FICI = (MICA/MICa) + (MICB/MICb), where MICA = concentration of inhibitor a in combination with inhibitor b; MICa = MIC of inhibitor a, applied as a single agent; MICB = concentration of inhibitor b in combination with inhibitor a; and MICb = MIC of inhibitor b applied as a single agent. The results were interpreted as a synergistic effect if the FICI was ≤ 0.5; as an additive effect if 0.5 < FICI ≤ 1; an indifferent effect if 1 < FICI ≤ 4; and as an antagonistic effect if the FICI was > 4 (Pillai et al. [2005]).

[2] = tested on: H. pylori SS1 strain; experiment: MIC by broth microdilution and FICI of 1:1 combinations, strain SS1; type: cell-based; conditions: Helicobacter pylori, SS1STRAIN, 72 h, combinations 1:1 w/w given as inhibitor a/inhibitor b
Procedure: as §1, §2

[3] = tested on: H. pylori 26695 strain cells; experiment: Cellular uptake (accumulation test), LC–MS detection; type: cell-based
Procedure: Formycin A, formycin B, and metronidazole were quantified through the ultra-performance liquid chromatography–tandem mass spectrometry. Samples were analyzed on Waters Xevo TQ-S with a standard ESI ion source coupled to Waters Acquity I-class UPLC.
Calibration samples were prepared by spiking blank growth medium F12 by the tested inhibitor, formycin A, formycin B, or metronidazole solutions. Internal standards (IS) were used to improve the accuracy of the method. To each pipetted sample from a particular experiment, the same amount of IS was added. As a detector response, we considered the ratio of the analyte peak area (variable) to the internal standard peak area (constant). This allows compensation for signal changes due to a possible instability of the ion source. If the ionization efficiency changes, both compounds are affected, but the surface peak ratio is maintained. […] Samples and calibrators were precipitated using IS solution and injected on the instrument.
Calibration curves were acquired by plotting the concentration of the standards against the ratio of the analyte peak area to the IS peak area. The calibration curve for FA in low concentration (35 μM) consisted of 7 samples in the range from 0.23 to 37.5 μM (R^2 = 0.997); for FA in high concentration (350 μM), the curve consisted of 6 samples in the range from 3.7 to 374.7 μM (R^2 = 0.995); for FB in low concentration (35 μM), the curve consisted of 7 samples in the range from 0.291 to 46.5 μM (R^2 = 0.999); for FB in high concentration (350 μM), the curve consisted of 7 samples in the range from 2.91 to 465.0 μM (R^2 = 0.999); and for MTZ (0.5 μM), the calibration curve was 8 samples in the range from 0.584 to 584.2 nM (R^2 = 0.995).
Chromatography was run on Waters Acquity BEH C18, 1.7 μm, 2.1 mm × 50 mm analytical column thermostated at 70 °C. The separations were done using 2.5 min gradient method. Phase A was 0.1% formic acid in MilliQ water; phase B was 0.1% formic acid in acetonitrile. For formycins the gradient started at 5% B and increased linearly to 50% B in 1.6 min; at 1.8 min it returned to the starting condition for column equilibration. For metronidazole the gradient started at 5% B and increased linearly to 50% B in 1.3 min; at 2.0 min it returned to the starting condition for column equilibration. The flow rate was 600 μL/min in both methods. The retention time of FA was 0.42 min, FB was 0.45 min (see Fig. 4a, b), and MTZ 0.88 min.

[4] = tested on: H. pylori 26695 strain cells; experiment: Cellular uptake (accumulation test), detection by inhibition of the target enzyme (AdSS or PNP); type: cell-based; conditions: 8 h
Procedure: Overnight cultures of H. pylori wild-type 26695 strain were grown by shaking (120 rpm) at 37 °C under microaerophilic conditions (5% O2, 10% CO2, 85% N2) in BHI medium (37 g/L) supplemented with 10% Fetal Bovine Serum and 1% Helicobacter pylori Selective Supplement. Cells were collected by centrifugation (5 min at 8000 × g at room temperature). The supernatant was decanted and the cell pellets were suspended in F12 medium (with L-glutamine and sodium bicarbonate) and centrifuged again. The supernatant was decanted again and cell pellets were resuspended in such a volume of F12 medium to obtain an OD600 of 4.0.
(§3) The accumulation test was carried out in 24-deep-well 2 mL flat-bottomed plates, all in a final volume of 1 mL. Three types of samples were used, generated by mixing the following components in a 1:1 ratio: (1) concentrated and resuspended cells in F12 medium, (2) a solution of the appropriate concentration of a test compound in F12 medium, (3) F12 medium.
The final concentrations of the tested compounds were 350 µM and 35 µM for formycin A and formycin B, and 35 μM for hadacidin. One set of three replicate samples was incubated at 37 °C, and the other set was incubated at 4 °C. […]
where Km and Vmax are the Michaelis constant and maximal velocity, respectively, and Ki is the inhibition constant of the tested inhibitor, in our case hadacidin. […] These values, together with velocity measured for any tested supernatant, Cinhibitor_start , and velocity measured when only F12 medium is present, v, are sufficient to determine inhibitor concentration, Ctested , present in a tested supernatant, using Eq. (4), which is obtained by the rearrangement of Eq. (2) and Eq. (3):4 Ctested=Cinhibitor_start1/vtested-1/v/1/vinhibitor_start-1/v
The formycin B uptake was studied in the same way, but instead of AdSS, PNP was used, since it is the target enzyme for this inhibitor. […] Specific activity is expressed as units per mg of protein (U/mg).

[5] = pKa values and ionic form at pH 7; type: physicochemical
Source text: Table 3 Partition coefficients of the neutral and ionized forms, and pKa values of the tested compounds, and of metronidazole used as a control in the cellular uptake studies. Partition coefficients of the ionic forms observed at pH 7 are marked bold | column: Ionic form at pH 7

[6] = ref Giziewicz and Shugar [1977], Wierzchowski and Shugar [1982], Bzowska et al. [1992] (formycins), Gottlieb and Shaw [2013] (hadacidin), cited from earlier work; for pKa (first value): Hellgren et al. [1995] (metronidazole)
[7] = target: T1, purine nucleoside phosphorylase (PNP) from H. pylori 26695 strain (Helicobacter pylori, UniProt P56463); experiment: biochemical
T1 sequence (P56463 whole entry): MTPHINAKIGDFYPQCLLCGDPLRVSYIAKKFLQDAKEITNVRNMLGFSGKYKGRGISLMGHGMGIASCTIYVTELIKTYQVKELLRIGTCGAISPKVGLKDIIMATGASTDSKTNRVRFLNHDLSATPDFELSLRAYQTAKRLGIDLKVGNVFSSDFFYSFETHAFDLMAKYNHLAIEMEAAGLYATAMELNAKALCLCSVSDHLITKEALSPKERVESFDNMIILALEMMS
Procedure: (§4) Kinetic experiments with PNP, and also with AdSS, described in the section “AdSS and PNP inhibition detection of cellular uptake”, were performed on a double-beam UV/VIS spectrophotometer Cary 100, with thermostated Peltier cell holders (Varian: Agilent Technologies, Mulgrave, Vic., Australia). The inhibition constant was determined as the adjustable parameter in the global fitting of the competitive inhibition model to all data obtained, using the GraphPad Prism program (GraphPad Software, San Diego, CA, USA).

[8] = tested on: H. pylori 26695 strain cells; experiment: Cellular uptake (accumulation test), UV absorption detection; conditions: 8 h
Procedure: Cellular uptake of PNP inhibitors, formycin A (FA) and formycin B (FB), and the control compound, metronidazole (MTZ), was determined using the approach described by Zhou et al. ([2015]) for E. coli and Pseudomonas aeruginosa, adapted to conditions suitable for H. pylori cell growth. This method measures the change of extracellular drug concentration using LC–MS detection.
Overnight cultures of H. pylori wild-type 26695 strain were grown by shaking (120 rpm) at 37 °C under microaerophilic conditions (5% O2, 10% CO2, 85% N2) in BHI medium (37 g/L) supplemented with 10% Fetal Bovine Serum and 1% Helicobacter pylori Selective Supplement. Cells were collected by centrifugation (5 min at 8000 × g at room temperature). The supernatant was decanted and the cell pellets were suspended in F12 medium (with L-glutamine and sodium bicarbonate) and centrifuged again. The supernatant was decanted again and cell pellets were resuspended in such a volume of F12 medium to obtain an OD600 of 4.0. F12 medium was selected for experiments because it is a minimal medium of defined composition and is suitable for measurements on MS.
as §3
The final concentrations of the tested compounds were 350 µM and 35 µM for formycin A and formycin B, and 35 μM for hadacidin. One set of three replicate samples was incubated at 37 °C, and the other set was incubated at 4 °C. Samples were taken at the start of the accumulation test, to check the concentration of the inhibitor at the start (named “Inhibitor_start,” “H. pylori + inhibitor_start”), then after 4 and 8 h of incubation at both temperatures. The obtained samples were centrifuged at 8000 × g for 5 min at 4 °C. The supernatant was collected for the LC–MS analysis (used for MTZ, FA, and FB uptake), UV absorption measurements (used for FA and FB uptake), and AdSS and PNP inhibition analysis (used for Hada and FB uptake).
For cellular uptake of formycin A and formycin B, UV absorption was additionally used as a detection method. […] Nevertheless, there is some overlap between these spectra, and because of that, selective observation of formycins absorption is not possible. Moreover, during the cellular uptake experiment, H. pylori cells may take some UV absorbing nutrients from the medium, as well as release some metabolic products that also absorb in the UV region. Therefore, in the cellular uptake experiment, correction for absorption caused by these processes was introduced by including samples containing just H. pylori cells in F12 medium, incubated for 4 and 8 h at both temperatures, and subtracting absorption spectra of such supernatants.
Samples in this case were the same as those evaluated by the LC–MS detection and by analysis of the inhibition of the PNP activity. The UV spectra of the supernatants, from experiments with 350 μM and at 35 μM inhibitor concentration, diluted with water 10 times and 2 times, respectively (with the absorbance of F12 medium, 10 times or 2 times diluted with water, as a reference), were measured. The absorbance at the most suitable wavelengths was used to calculate the formycin concentration. […]

[9] = target: adenylosuccinate synthetase (AdSS) from H. pylori 26695 strain; set-up: method as in Bubić et al. [2018]; conditions: H. pylori 26695 strain AdSS; ref Bubić et al. [2018]; cited from earlier work
[10] = tested on: P. falciparum PNP; set-up: method as in Dziekan et al. [2019]; conditions: solution studies; ref Dziekan et al. [2019]; cited from earlier work
[11] = target: T1, purine nucleoside phosphorylase (PNP) from H. pylori 26695 strain; conditions: m^7Guo as variable substrate, global fit, 25 °C, pH 7.0, 50 mM phosphate
Procedure: as §4

[12] = tested on: E. coli PNP; set-up: method as in Bzowska et al. [1992]; conditions: ref Bzowska et al. [1992]; cited from earlier work
[13] = target: T1, purine nucleoside phosphorylase (PNP) from H. pylori 26695 strain; set-up: made in house; method as in Narczyk et al. [2018]; conditions: H. pylori 26695 strain PNP; ref Narczyk et al. [2018]; cited from earlier work
[14] = H. pylori ATCC 26695, geometrical mean of repetitions
[15] = H. pylori SS1, geometrical mean of repetitions
[16] = starting concentration 35 µM, LC–MS, 8 h incubation, Eq. (1)
[17] = starting concentration 350 µM, LC–MS, 8 h incubation, Eq. (1)
[18] = starting concentration 350 µM, UV absorption at 294 nm

`O=c1[nH]cnc2c([C@@H]3O[C@H](CO)[C@@H](O)[C@H]3O)n[nH]c12` [Formycin B] showed an MIC [1, 14] greater than 1000 µg/mL, an MIC ([1]; H. pylori ATCC 26695) greater than 3.7 mM and an MIC [2, 15] of no less than 397 µg/mL. The MIC ([2]; H. pylori SS1) was no less than 1.5 mM, the Intracellular accumulation [3, 16] was 2.5 ± 0.5 µM and the Intracellular accumulation [3, 17] was 7.1 ± 2.5 µM. The Intracellular accumulation ([3]; starting concentration 350 µM, LC–MS, 8 h incubation, Eq. (1), listed as formycin B) was “up to 7.1 ± 2.5 µM”, the Intracellular accumulation ([4]; starting concentration 350 µM, PNP inhibition detection) was 20.2 ± 34.0 µM and the “Ionic form at pH 7” value [5] was “Neutral”. For the same molecule, the “pKa (first value)” value [6] was 0.9, the “pKa” value [6] was 8.6 and the Ki [7] was 0.96 ± 0.08 µM. It also gave an Intracellular accumulation ([8]; starting concentration 350 µM, UV absorption at 279 nm) of 3.0 ± 9.2 µM and an Intracellular accumulation [8, 18] of 1.0 ± 7.4 µM.

With `O=CN(O)CC(=O)O` [Hadacidin] the MIC [1, 14] was greater than 1000 µg/mL, the MIC ([1]; H. pylori ATCC 26695) was greater than 8.4 mM and the MIC [2, 15] was greater than 1000 µg/mL. For the same molecule, the MIC ([2]; H. pylori SS1) was greater than 8.4 mM, the Intracellular accumulation ([4]; starting concentration 35 µM, AdSS inhibition detection) was 4.9 ± 4.1 µM and the Intracellular accumulation ([4]; starting concentration 35 µM, AdSS inhibition detection, listed as hadacidin) was “does not enter H. pylori cells”. For the same molecule, the “Ionic form at pH 7” value [5] was “Anion”, the Ki [9] was 0.19 ± 0.02 µM and the “pKa (first value)” value [6] was 3.5. The “pKa” value [6] was 9.4.

For `Cc1ncc([N+](=O)[O-])n1CCO` [Metronidazole], the Intracellular accumulation ([3]; Helicobacter pylori, 8 h, 0.5 µM) was 0.37 ± 0.01 µM and the “Ionic form at pH 7” value [5] was “Neutral”.

In the case of `C=C[C@H]1C[N@@]2CC[C@H]1C[C@H]2[C@H](O)c1ccnc2ccc(OC)cc12` [quinine], the “Binding affinity to P. falciparum PNP” value [10] is given as “low nanomolar affinity”.

`C[n+]1cn([C@@H]2O[C@H](CO)[C@@H](O)[C@H]2O)c2nc(N)[nH]c(=O)c21` [m^7Guo, 7-Methylguanosine] gave a Km [11] of 0.0463 ± 0.0044 mM and a Vmax [11] of 12.5 ± 0.5 µmol/min/mg.

In the case of `Nc1ncnc2c([C@@H]3O[C@H](CO)[C@@H](O)[C@H]3O)n[nH]c12` [Formycin A], the MIC [1, 14] is reported as no less than 870 µg/mL, the MIC ([1]; H. pylori ATCC 26695) is reported as no less than 3.1 mM and the MIC [2, 15] is reported as greater than 1000 µg/mL. For the same molecule, the MIC ([2]; H. pylori SS1) was greater than 3.5 mM, the Intracellular accumulation [3, 16] was 15.9 ± 0.5 µM and the Intracellular accumulation [3, 17] was 29.5 ± 5.3 µM. The Intracellular accumulation ([3]; starting concentration 350 µM, LC–MS, 8 h incubation, Eq. (1), listed as formycin A) was “up to 29.5 ± 5.3 µM”, the “Ionic form at pH 7” value [5] was “Neutral” and the Ki [12] was 5.3 ± 0.4 µM. The “pKa (first value)” value [6] was 4.6, the “pKa” value [6] was 9.7 and the Ki [13] was 14 ± 1.7 µM. It also gave an Intracellular accumulation ([8]; starting concentration 35 µM, UV absorption at 305 nm) of 6.7 ± 0.6 µM, an Intracellular accumulation [8, 18] of 35.2 ± 7.1 µM and an Intracellular accumulation ([8]; starting concentration 350 µM, UV absorption at 305 nm, Eq. (1), no correction for metabolites) of 22.2 ± 7.6 µM.
